# Measurements taken from patent US20140023611A1 (priority 2010, published 2014).
# Biological target: T1, rat NaP2b (SLC34A2) (Rattus norvegicus, UniProt Q9JJ09)
# T1 construct: host or cells: HEK293
# T1 sequence (Q9JJ09 1-695): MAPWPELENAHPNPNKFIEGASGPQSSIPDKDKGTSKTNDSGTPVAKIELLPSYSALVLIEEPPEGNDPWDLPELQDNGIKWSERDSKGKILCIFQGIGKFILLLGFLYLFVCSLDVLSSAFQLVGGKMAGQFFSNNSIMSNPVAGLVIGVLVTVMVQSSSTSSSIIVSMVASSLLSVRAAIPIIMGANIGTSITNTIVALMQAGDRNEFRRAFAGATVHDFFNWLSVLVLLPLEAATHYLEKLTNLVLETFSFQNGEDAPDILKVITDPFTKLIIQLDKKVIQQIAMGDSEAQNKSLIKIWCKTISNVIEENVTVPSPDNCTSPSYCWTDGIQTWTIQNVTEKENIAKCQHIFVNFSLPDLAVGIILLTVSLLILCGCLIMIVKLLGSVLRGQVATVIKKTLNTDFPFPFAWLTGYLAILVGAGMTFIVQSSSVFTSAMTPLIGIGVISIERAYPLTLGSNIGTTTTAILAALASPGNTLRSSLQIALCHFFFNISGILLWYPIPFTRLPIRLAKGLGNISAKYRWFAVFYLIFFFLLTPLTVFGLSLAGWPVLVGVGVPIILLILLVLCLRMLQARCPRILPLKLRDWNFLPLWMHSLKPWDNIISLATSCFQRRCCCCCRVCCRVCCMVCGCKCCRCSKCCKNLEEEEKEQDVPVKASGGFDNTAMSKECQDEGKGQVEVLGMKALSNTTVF
# Experiment: Inhibition of NaP2b-mediated Pi (33P) uptake in transfected HEK293 cells, rat NaP2b
# Type: cell-based
# Settings: 33P Pi uptake, 0.1 mM phosphate, value given as pIC50 range
# In short: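 The cells transiently expressed NaP2b after Lipofectamine transfection. Each compound was run in duplicate over twelve concentrations, 0.1 nM–30 uM.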
row,Structure (SMILES),IC50
1,"CN(CCN1CCOCC1)C(=O)c1cccc(C(=O)Nc2ccc(N3CCCCC3)cc2-c2cc(C(=O)NCc3ccccc3OC(F)(F)F)ccn2)c1 [Example 123, N1-(2-(4-((2-(trifluoromethoxy)benzyl)carbamoyl)pyridin-2-yl)-4-(piperidin-1-yl)phenyl)-N3-methyl-N3-(2-morpholinoethyl)isophthalamide]",1 to 7.94 µM
2,"COc1ccccc1CNC(=O)c1ccnc(-c2cc(N3CCCCC3)ccc2NC(=O)c2cccc(C(=O)N(C)CCN3CCOCC3)c2)c1 [Example 124, N1-(2-(4-((2-methoxybenzyl)carbamoyl)pyridin-2-yl)-4-(piperidin-1-yl)phenyl)-N3-methyl-N3-(2-morpholinoethyl)isophthalamide]",1 to 7.94 µM
3,"COc1ccc(C(F)(F)F)cc1CNC(=O)c1ccnc(-c2cc(N3CCCCC3)ccc2NC(=O)c2cccc(C(=O)N(C)CCN3CCOCC3)c2)c1 [Example 125, N1-(2-(4-((2-methoxy-5-(trifluoromethyl)benzyl)carbamoyl)pyridin-2-yl)-4-(piperidin-1-yl)phenyl)-N3-methyl-N3-(2-morpholinoethyl)isophthalamide]",1 to 7.94 µM
4,"CCCCN(C)c1ccc(NC(=O)c2cccc(C(=O)N(C)CCN3CCOCC3)c2)c(-c2cc(C(=O)NCc3cccc(C(F)(F)F)c3)ccn2)c1 [Example 127, N1-(4-(butyl(methyl)amino)-2-(4-(3-(trifluoromethyl)benzylcarbamoyl)pyridin-2-yl)phenyl)-N3-methyl-N3-(2-morpholinoethyl)isophthalamide]",10 to 31.6 µM
5,"CCCN(CC)c1ccc(NC(=O)c2cccc(C(=O)N(C)CCN3CCOCC3)c2)c(-c2cc(C(=O)NCc3cccc(C(F)(F)F)c3)ccn2)c1 [Example 128, N1-(2-(4-((3-(trifluoromethyl)benzyl)carbamoyl)pyridin-2-yl)-4-(ethyl(propyl)amino)phenyl)-N3-methyl-N3-(2-morpholinoethyl)isophthalamide]",1 to 7.94 µM
6,"CCCN(C)c1ccc(NC(=O)c2cccc(C(=O)N(C)CCN3CCOCC3)c2)c(-c2cc(C(=O)NCc3cccc(C(F)(F)F)c3)ccn2)c1 [Example 129, N^1-methyl-N^3-(4-(methyl(propyl)amino)-2-(4-((3-(trifluoromethyl)benzyl)carbamoyl)pyridin-2-yl)phenyl)-N-(2-morpholinoethyl)isophthalamide]",1 to 7.94 µM
7,"CN(CCN1CCOCC1)C(=O)c1cccc(C(=O)Nc2ccc(C(F)(F)F)cc2-c2cc(C(=O)N[C@H]3CCCc4ccccc43)ccn2)c1 [Example 130, (S)—N1-methyl-N1-(2-morpholinoethyl)-N3-(2-(4-(1,2,3,4-tetrahydronaphthalen-1-ylcarbamoyl)pyridin-2-yl)-4-(trifluoromethyl)phenyl)isophthalamide]",1 to 7.94 µM
8,"CN(CCN1CCOCC1)C(=O)c1cccc(C(=O)Nc2ccc(OC3CCCC3)cc2-c2cc(C(=O)N[C@H]3CCCc4ccccc43)ccn2)c1 [Example 133, (S)—N^1-(4-(cyclopentyloxy)-2-(4-((1,2,3,4-tetrahydronaphthalen-1-yl)carbamoyl)pyridin-2-yl)phenyl)-N^3-methyl-N^3-(2-morpholinoethyl)isophthalamide]",1 to 7.94 µM
9,"O=C(O)COc1cccc(SCc2cccc(C(=O)Nc3ccc(N4CCCCC4)cc3-c3cc(C(=O)NCc4cccc(C(F)(F)F)c4)ccn3)c2)c1 [Example 134, 2-(3-(3-(4-(piperidin-1-yl)-2-(4-(3-(trifluoromethyl)benzylcarbamoyl)pyridin-2-yl)phenylcarbamoyl)benzylthio)phenoxy)acetic acid]",1 to 7.94 µM
10,"CN(CCOCCOCCOCCC(=O)O)C(=O)c1cccc(SCc2cccc(C(=O)Nc3ccc(N4CCCCC4)cc3-c3cc(C(=O)NCc4cccc(C(F)(F)F)c4)ccn3)c2)c1 [Example 135, 3-(2-(2-(2-(N-methyl-3-(3-(4-(piperidin-1-yl)-2-(4-(3-(trifluoromethyl)benzylcarbamoyl)pyridin-2-yl)phenylcarbamoyl)benzylthio)benzamido)ethoxy)ethoxy)ethoxy)propanoic acid]",1 to 7.94 µM
11,"CN(CCN1CCOCC1)C(=O)Cc1cccc(SCc2cccc(C(=O)Nc3ccc(N4CCCCC4)cc3-c3cc(C(=O)NCc4cccc(C(F)(F)F)c4)ccn3)c2)c1 [Example 136, 2-(2-(3-((3-(2-(methyl(2-morpholinoethyl)amino)-2-oxoethyl)phenylthio)methyl)benzamido)-5-(piperidin-1-yl)phenyl)-N-(3-(trifluoromethyl)benzyl)isonicotinamide]",1 to 7.94 µM
12,O=C(O)CNC(=O)Cc1cccc(SCc2cccc(C(=O)Nc3ccc(N4CCCCC4)cc3-c3cc(C(=O)NCc4cccc(C(F)(F)F)c4)ccn3)c2)c1 [Example 139],10 to 31.6 µM
13,O=C(O)CCNC(=O)Cc1cccc(SCc2cccc(C(=O)Nc3ccc(N4CCCCC4)cc3-c3cc(C(=O)NCc4cccc(C(F)(F)F)c4)ccn3)c2)c1 [Example 140],1 to 7.94 µM
14,"O=C(O)CN(CCOCCO)C(=O)CCOCCOCCOCCOCCSCc1cccc(C(=O)Nc2ccc(N3CCCCC3)cc2-c2cc(C(=O)NCc3cccc(C(F)(F)F)c3)ccn2)c1 [Example 145, 18-(2-(2-hydroxyethoxy)ethyl)-17-oxo-1-(3-(4-(piperidin-1-yl)-2-(4-(3-(trifluoromethyl)benzylcarbamoyl)pyridin-2-yl)phenylcarbamoyl)phenyl)-5,8,11,14-tetraoxa-2-thia-18-azaicosan-20-oic acid]",10 to 31.6 µM
15,"CC(=O)N1CCCN(C(=O)CCOCCOCCOCCOCCSCc2cccc(C(=O)Nc3ccc(N4CCCCC4)cc3-c3cc(C(=O)NCc4cccc(C(F)(F)F)c4)ccn3)c2)CC1 [Example 153, 2-(2-(3-(17-(4-acetyl-1,4-diazepan-1-yl)-17-oxo-5,8,11,14-tetraoxa-2-thiaheptadecyl)benzamido)-5-(piperidin-1-yl)phenyl)-N-(3-(trifluoromethyl)benzyl)isonicotinamide]",10 to 31.6 µM
16,"O=C(NCc1cccc(C(F)(F)F)c1)c1ccnc(-c2cc(N3CCCCC3)ccc2NC(=O)c2cccc(CSCCOCCOCCOCCOCCC(=O)N3CCC(N4CCOCC4)CC3)c2)c1 [Example 154, 2-(2-(3-(17-(4-morpholinopiperidin-1-yl)-17-oxo-5,8,11,14-tetraoxa-2-thiaheptadecyl)benzamido)-5-(piperidin-1-yl)phenyl)-N-(3-(trifluoromethyl)benzyl)isonicotinamide]",10 to 31.6 µM
17,"O=C(O)CCOCCOCCOCCNC(=O)CCOCCOCCOCCOCCSCc1cccc(C(=O)Nc2ccc(N3CCCCC3)cc2-c2cc(C(=O)NCc3cccc(C(F)(F)F)c3)ccn2)c1 [Example 155, 17-oxo-1-(3-(4-(piperidin-1-yl)-2-(4-(3-(trifluoromethyl)benzylcarbamoyl)pyridin-2-yl)phenylcarbamoyl)phenyl)-5,8,11,14,21,24,27-heptaoxa-2-thia-18-azatriacontan-30-oic acid]",10 to 31.6 µM
18,"O=C(NCc1cccc(C(F)(F)F)c1)c1ccnc(-c2cc(N3CCCCC3)ccc2NC(=O)c2cccc(Cn3ccc4c(C(=O)NCCOCCOCCO)cccc43)c2)c1 [Example 180, N-(2-(2-(2-hydroxyethoxy)ethoxy)ethyl)-1-(3-(4-(piperidin-1-yl)-2-(4-(3-(trifluoromethyl)benzylcarbamoyl)pyridin-2-yl)phenylcarbamoyl)benzyl)-1H-indole-4-carboxamide]",1 to 7.94 µM
19,"O=C(O)c1cccc(Cn2ccnc2-c2cccc(C(=O)Nc3ccc(N4CCCCC4)cc3-c3cc(C(=O)NCc4cccc(C(F)(F)F)c4)ccn3)c2)c1 [Example 184, 3-((2-(3-(4-(piperidin-1-yl)-2-(4-(3-(trifluoromethyl)benzylcarbamoyl)pyridin-2-yl)phenylcarbamoyl)phenyl)-1H-imidazol-1-yl)methyl)benzoic acid]",1 to 7.94 µM
20,"O=C(O)c1cccc(CSc2cccc(C(=O)Nc3ccc(N4CCCCC4)cc3-c3cc(C(=O)NCc4cccc(C(F)(F)F)c4)ccn3)c2)c1 [Example 186, 3-((3-(4-(piperidin-1-yl)-2-(4-(3-(trifluoromethyl)benzylcarbamoyl)pyridin-2-yl)phenylcarbamoyl)phenylthio)methyl)benzoic acid]",1 to 7.94 µM
21,"CCN(CC)c1ccc(NC(=O)c2cccc(C(=O)N3CCC[C@H](C(=O)NCCOC)C3)c2)c(-c2cc(C(=O)NCc3cccc(C(F)(F)F)c3)ccn2)c1 [Example 189, (S)-2-(5-(diethylamino)-2-(3-(3-((2-methoxyethyl)carbamoyl)piperidine-1-carbonyl)benzamido)phenyl)-N-(3-(trifluoromethyl)benzyl)isonicotinamide]",1 to 7.94 µM
22,"CN(CCN1CCC[C@H]1C(=O)N(C)CCOCCOCCOCCC(=O)OC(C)(C)C)C(=O)c1cccc(C(=O)Nc2ccc(N3CCCCC3)cc2-c2cc(C(=O)N[C@H]3CCCc4ccccc43)ccn2)c1 [Example 190, tert-Butyl 2-methyl-1-((S)-1-(2-(N-methyl-3-((4-(piperidin-1-yl)-2-(4-(((S)-1,2,3,4-tetrahydronaphthalen-1-yl)carbamoyl)pyridin-2-yl)phenyl)carbamoyl)benzamido)ethyl)pyrrolidin-2-yl)-1-oxo-5,8,11-trioxa-2-azatetradecan-14-oate]",1 to 7.94 µM
